Assay results reported in US20240336657A1, “G-ALPHA-S PEPTIDE INHIBITORS AND USES THEREOF” (The Regents of the University of California, priority 2021, published 2024).
Positions of bridges follow the written chain, without caps; N, C: chain ends. Non-standard residues stand in square brackets, D forms with d. Residues, ends and D or L forms follow the SMILES beside them.

B1: GN13 (peptide)
peptide: {CH2CO}-[dY]FESVYAIWGTLCG-NH2
modifications: thioether N-13
SMILES: CC[C@H](C)[C@@H]1NC(=O)[C@H](C)NC(=O)[C@H](Cc2ccc(O)cc2)NC(=O)[C@H](C(C)C)NC(=O)[C@H](CO)NC(=O)[C@H](CCC(=O)O)NC(=O)[C@H](Cc2ccccc2)NC(=O)[C@@H](Cc2ccc(O)cc2)NC(=O)CSC[C@@H](C(=O)NCC(N)=O)NC(=O)[C@H](CC(C)C)NC(=O)[C@H]([C@@H](C)O)NC(=O)CNC(=O)[C@H](Cc2c[nH]c3ccccc23)NC1=O
notes: Residue numbers in the text (E3, V5, I8, W9, T11) fit this order; In the RaPID selections the peptide carried a GSGSGS linker, puromycin and its mRNA/cDNA; also called cyclic peptide GN13

What was measured:
WT Gαs = WT Gαs (Homo sapiens, UniProt P63092); assay: Gαs inhibition in the presence of Gβγ (FIG. 4, FIGS. 6A-6B); format: biochemical
WT Gαs, sequence (P63092 whole entry): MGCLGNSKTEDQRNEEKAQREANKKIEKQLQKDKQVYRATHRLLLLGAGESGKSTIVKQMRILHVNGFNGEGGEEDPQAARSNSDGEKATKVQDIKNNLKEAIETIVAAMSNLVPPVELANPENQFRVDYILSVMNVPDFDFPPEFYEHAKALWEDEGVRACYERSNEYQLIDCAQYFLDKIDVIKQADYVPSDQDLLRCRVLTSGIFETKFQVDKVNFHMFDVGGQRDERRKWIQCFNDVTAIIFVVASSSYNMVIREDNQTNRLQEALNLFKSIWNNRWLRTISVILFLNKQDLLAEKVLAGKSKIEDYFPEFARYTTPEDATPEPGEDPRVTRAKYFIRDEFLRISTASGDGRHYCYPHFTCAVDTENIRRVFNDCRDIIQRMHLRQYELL

R201C Gαs = R201C Gαs (Homo sapiens, UniProt P63092, R201C); assay: Gαs mutant inhibition (FIGS. 1A-1B, FIGS. 6A-6B); format: biochemical; conditions: in the presence of Gβγ
R201C Gαs, sequence (P63092 whole entry R201C): as the sequence (P63092 whole entry) above, with R201C counted along it

R201H Gαs = R201H Gαs (Homo sapiens, UniProt P63092, R201H); assay: Gαs mutant inhibition in the presence of Gβγ (FIGS. 6A-6B); format: biochemical
R201H Gαs, sequence (P63092 whole entry R201H): as the sequence (P63092 whole entry) above, with R201H counted along it

Gαs S275L = Gαs S275L (Homo sapiens, UniProt P63092, S275L); assay: Gαs inhibition with mutation in the cyclic peptide binding site (FIGS. 6A-6B); format: biochemical; conditions: in the assay tested
Gαs S275L, sequence (P63092 whole entry S275L): as the sequence (P63092 whole entry) above, with S275L counted along it

R201C Gαs/GDP = R201C Gαs/GDP (Homo sapiens, UniProt P63092, R201C); assay: Binding to R201C Gαs/GDP (FIGS. 7A-7B)
R201C Gαs/GDP, sequence (P63092 whole entry R201C): as the sequence (P63092 whole entry) above, with R201C counted along it

[1] = biological target: WT Gαs (purified, adenylyl cyclase activity assay) (UniProt P63092-2 7-380); assay: cell-based or functional assay
WT Gαs (purified, adenylyl cyclase activity assay), sequence (P63092 other isoform, or with tags, fused parts or gaps limits assumed): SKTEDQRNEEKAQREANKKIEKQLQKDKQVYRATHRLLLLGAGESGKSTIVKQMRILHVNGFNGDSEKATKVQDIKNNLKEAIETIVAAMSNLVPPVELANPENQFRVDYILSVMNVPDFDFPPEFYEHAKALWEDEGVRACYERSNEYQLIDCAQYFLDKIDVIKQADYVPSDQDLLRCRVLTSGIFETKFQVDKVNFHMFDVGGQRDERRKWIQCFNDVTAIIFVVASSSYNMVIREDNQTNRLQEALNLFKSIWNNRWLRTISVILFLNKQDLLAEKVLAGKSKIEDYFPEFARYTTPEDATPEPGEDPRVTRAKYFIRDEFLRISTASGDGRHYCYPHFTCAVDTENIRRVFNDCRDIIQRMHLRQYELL

[2] = biological target: WT Gαs in HEK293 cell membranes, P63092; assay: cell-based or functional assay
WT Gαs in HEK293 cell membranes, P63092, sequence (P63092 2-394): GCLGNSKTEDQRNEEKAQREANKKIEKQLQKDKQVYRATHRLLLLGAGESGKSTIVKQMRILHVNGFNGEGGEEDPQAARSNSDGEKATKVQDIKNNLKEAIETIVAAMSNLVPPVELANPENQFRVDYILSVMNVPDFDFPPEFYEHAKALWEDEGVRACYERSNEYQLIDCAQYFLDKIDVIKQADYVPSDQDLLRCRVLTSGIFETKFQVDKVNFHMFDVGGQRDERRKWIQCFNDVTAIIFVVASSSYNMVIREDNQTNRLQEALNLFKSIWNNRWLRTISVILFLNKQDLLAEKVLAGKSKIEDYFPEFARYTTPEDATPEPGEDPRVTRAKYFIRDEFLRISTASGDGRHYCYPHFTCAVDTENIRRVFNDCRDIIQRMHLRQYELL

[3] = biological target: T1, Biotinylated Avi-tagged Gαi1 (residues 2-354 of human Gαi1), GppNHp-bound (human, UniProt P63096 2-354, biotin on the Avi tag (BirA)); assay: BLI, biotinylated Gα on streptavidin biosensors
T1 construct: Loaded with GppNHp; Same polypeptide as m9, other nucleotide state
T1 sequence (P63096 other isoform, or with tags, fused parts or gaps limits assumed): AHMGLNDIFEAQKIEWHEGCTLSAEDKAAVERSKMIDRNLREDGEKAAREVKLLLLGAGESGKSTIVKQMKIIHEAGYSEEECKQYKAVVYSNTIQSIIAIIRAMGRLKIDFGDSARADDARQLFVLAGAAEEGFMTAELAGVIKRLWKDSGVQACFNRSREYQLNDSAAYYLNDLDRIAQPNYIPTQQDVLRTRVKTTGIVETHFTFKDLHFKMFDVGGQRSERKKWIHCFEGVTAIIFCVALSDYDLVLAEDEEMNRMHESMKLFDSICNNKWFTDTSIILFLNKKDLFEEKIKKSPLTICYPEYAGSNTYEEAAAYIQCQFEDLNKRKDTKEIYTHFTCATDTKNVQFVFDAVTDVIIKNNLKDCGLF
Experimental: (§1) BLI experiments were performed using an OctetRED384 instrument from ForteBio. All experiments were performed at 25° C. using BLI buffer (10 mM HEPES pH 7.4, 150 mM NaCl, 1 mM MgCl₂, 0.05% Tween-20, 0.1% DMSO, 0.2 mM GppNHp or GDP). Cyclic peptides were diluted to a series of concentrations in BLI buffer plus 10 μM Biotin. Assays were conducted in Greiner 384well, black, flat bottom polypropylene plates containing the protein solutions, BLI buffer plus 10 μM Biotin for dissociation, and serial dilutions of cyclic peptides to be tested.
(§2) Biotinylated proteins were immobilized on Streptavidin biosensors by dipping sensors into plate wells containing protein solutions at a concentration of 100-150 nM. Protein loading is around 2-3 nm. Sensors loaded with proteins were moved and dipped into wells with BLI buffer plus 10 μM Biotin to block unlabeled Streptavidin. […] Association and dissociation times were carefully determined to ensure full association and dissociation.
(§3) Raw kinetic data collected were processed with the Data Analysis software provided by the manufacturer using single reference subtraction in which buffer-only reference was subtracted (For GN13 analysis). […] The resulting data were analyzed based on a 1:1 binding model from which kₒₙ and koff values were obtained and then Kd values were calculated.

[4] = biological target: T2, Biotinylated Avi-tagged Gαi1 (residues 2-354 of human Gαi1), GDP-bound (human, UniProt P63096 2-354, biotin on the Avi tag (BirA)); assay: BLI, biotinylated Gα on streptavidin biosensors
T2 construct: Loaded with GDP; also called avi-Gαi (FL, WT)
T2 sequence (P63096 other isoform, or with tags, fused parts or gaps limits assumed): as above
Experimental: as §1, §2, §3

[5] = biological target: T3, Biotinylated His/Avi-tagged Gαs used in the RaPID selection, GppNHp-bound (human, UniProt P63092 7-394, biotin on the Avi tag (BirA co-expressed)); assay: RaPID comparison selection: peptide-mRNA-cDNA complexes on Gαs-immobilized streptavidin beads, qPCR and sequencing
T3 construct: Immobilized on streptavidin magnetic beads
T3 sequence (P63092 other isoform, or with tags, fused parts or gaps limits assumed): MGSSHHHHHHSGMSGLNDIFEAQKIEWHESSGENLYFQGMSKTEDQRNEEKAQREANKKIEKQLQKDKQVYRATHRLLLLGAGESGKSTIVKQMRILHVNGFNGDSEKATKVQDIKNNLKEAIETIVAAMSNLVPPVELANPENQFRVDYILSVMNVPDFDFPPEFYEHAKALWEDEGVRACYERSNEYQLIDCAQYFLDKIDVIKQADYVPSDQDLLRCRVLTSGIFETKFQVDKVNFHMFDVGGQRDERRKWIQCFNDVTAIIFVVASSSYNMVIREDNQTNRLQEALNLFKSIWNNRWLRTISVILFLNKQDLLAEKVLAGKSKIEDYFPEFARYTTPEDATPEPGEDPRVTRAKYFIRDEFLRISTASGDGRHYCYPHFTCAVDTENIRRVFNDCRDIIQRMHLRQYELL

| Molecule | inhibition of WT Gαs (WT Gαs) | inhibition of R201C Gαs (R201C Gαs) | inhibition of R201H Gαs (R201H Gαs) | inhibition with S275L mutation in the cyclic peptide binding site (Gαs S275L) | binding to R201C Gαs/GDP (R201C Gαs/GDP) | IC50, inhibition of Gαs-mediated adenylyl cyclase activation (cAMP production, reconstituted Gαs activity assay) [1] [µM] | IC50, inhibition of ISO-stimulated Gαs activity (cAMP) in HEK293 cell membranes [2] [µM] | binding result [3] | binding result [4] | fold selectivity for GppNHp-bound over GDP-bound Gαs [5] [fold] |
| --- | --- | --- | --- | --- | --- | --- | --- | --- | --- | --- |
| CC[C@H](C)[C@@H]1NC(=O)[C@H](Cc2c[nH]cn2)NC(=O)[C@H](Cc2ccc(O)cc2)NC(=O)[C@H]([C@@H](C)CC)NC(=O)[C@H](CO)NC(=O)[C@H](CCC(N)=O)NC(=O)[C@H](Cc2ccccc2)NC(=O)[C@@H](Cc2ccc(O)cc2)NC(=O)CSC[C@@H](C(N)=O)NC(=O)[C@H](CC(C)C)NC(=O)[C@H](CCC(=O)O)NC(=O)CNC(=O)[C@H](Cc2c[nH]c3ccccc23)NC1=O [GR6] ({CH2CO}-[dY]FQSIYHIWGELC-NH2; thioether N-13) | potently inhibits | inhibits | inhibits | blocked | increased binding |  |  |  |  |  |
| B1 |  |  |  |  |  | 4.15 | 12.2 | no binding | no binding | > 100 |
